Source: patent publication US6124269A, “2-Halo-6-O-substituted ketolide derivatives” (priority 1998, dated 2000)
In brackets after ≈: the same amount, converted by molar mass.

Tests used:
Assay type in all cases: cell-based
[1] = test system: Staphylococcus aureus ATCC 6538P; assay: In vitro agar dilution MIC, organism code AA; details: unit assumed
Outline: (§1)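 Agar dilution on Brain Heart Infusion agar holding twelve successive aqueous dilutions of compound; plates inoculated by replicator with 1:100 culture dilutions (1:10 for slow growers such as Streptococcus). Incubated 35-37° C for 20 to 24 hours. MIC is the lowest concentration giving no growth, slight haze or sparse colonies versus growth control.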

[2] = test system: Staphylococcus aureus A5177; assay: In vitro agar dilution MIC, organism code BB; details: in µg/mL (unit assumed)
Outline: as §1

[3] = test system: Staphylococcus aureus A-5278; assay: In vitro agar dilution MIC, organism code CC; details: unit assumed
Outline: as §1

[4] = test system: Staphylococcus aureus CMX 642A; assay: In vitro agar dilution MIC, organism code DD; details: Table 1B, unit assumed
Outline: as §1

[5] = test system: Staphylococcus aureus NCTC10649M; assay: In vitro agar dilution MIC, organism code EE; details: Table 1B, unit assumed
Outline: as §1

[6] = test system: Staphylococcus aureus CMX 553; assay: In vitro agar dilution MIC, organism code FF; details: Table 1B, unit assumed
Outline: as §1

[7] = test system: Staphylococcus aureus 1775; assay: In vitro agar dilution MIC, organism code GG; details: Table 1B, unit assumed
Outline: as §1

[8] = test system: Staphylococcus epidermidis 3519; assay: In vitro agar dilution MIC, organism code HH; details: Table 1B, in µg/mL (unit assumed)
Outline: as §1

[9] = test system: Enterococcus faecium ATCC 8043; assay: In vitro agar dilution MIC, organism code II; details: Table 1B, unit assumed
Outline: as §1

[10] = test system: Streptococcus bovis A-5169; assay: In vitro agar dilution MIC, organism code JJ; details: Table 1B, unit assumed
Outline: as §1

[11] = test system: Streptococcus agalactiae CMX 508; assay: In vitro agar dilution MIC, organism code KK; details: Table 1B, unit assumed
Outline: as §1

[12] = test system: Streptococcus pyogenes EES61; assay: In vitro agar dilution MIC, organism code LL; details: unit assumed
Outline: as §1

[13] = test system: Streptococcus pyogenes 930; assay: In vitro agar dilution MIC, organism code MM; details: unit assumed
Outline: as §1

[14] = test system: Streptococcus pyogenes PIU 2548; assay: In vitro agar dilution MIC, organism code NN; details: unit assumed
Outline: as §1

[15] = test system: Micrococcus luteus ATCC 9341; assay: In vitro agar dilution MIC, organism code OO; details: Table 1B, unit assumed
Outline: as §1

[16] = test system: Micrococcus luteus ATCC 4698; assay: In vitro agar dilution MIC, organism code PP; details: Table 1B, in µg/mL (unit assumed)
Outline: as §1

[17] = test system: Escherichia coli JUHL; assay: In vitro agar dilution MIC, organism code QQ; details: Table 1B, in µg/mL (unit assumed)
Outline: as §1

[18] = test system: Escherichia coli SS; assay: In vitro agar dilution MIC, organism code RR; details: Table 1B, in µg/mL (unit assumed)
Outline: as §1

[19] = test system: Escherichia coli DC-2; assay: In vitro agar dilution MIC, organism code SS; details: Table 1B, unit assumed
Outline: as §1

[20] = test system: Candida albicans CCH 442; assay: In vitro agar dilution MIC, organism code TT; details: Table 1B, unit assumed
Outline: as §1

[21] = test system: Mycobacterium smegmatis ATCC 114; assay: In vitro agar dilution MIC, organism code UU; details: Table 1B, in µg/mL (unit assumed)
Outline: as §1

[22] = test system: Nocardia asteroides ATCC 9970; assay: In vitro agar dilution MIC, organism code VV; details: Table 1B, in µg/mL (unit assumed)
Outline: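 Strains were stamped onto compound-containing Brain Heart Infusion agar and grown at 35-37° C for 20 to 24 hours. Lowest concentration without growth, or with only haze or scattered colonies, defined the MIC.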

[23] = test system: Haemophilis influenzae DILL AMP R; assay: In vitro agar dilution MIC, organism code WW; details: unit assumed
Outline: as §1

[24] = test system: Streptococcus pneumoniae ATCC 6303; assay: In vitro agar dilution MIC, organism code XX; details: unit assumed
Outline: as §1

[25] = test system: Streptococcus pneumoniae GYR 1171; assay: In vitro agar dilution MIC, organism code YY; details: Table 1B, unit assumed
Outline: as §1

[26] = test system: Streptococcus pneumoniae 5979; assay: In vitro agar dilution MIC, organism code ZZ; details: unit assumed
Outline: as §1

[27] = test system: Streptococcus pneumoniae 5649; assay: In vitro agar dilution MIC, organism code ZZA; details: unit assumed
Outline: as §1

SMILES	MIC ([1]; Table 1B) [µg/mL]	MIC ([2]; Table 1B)	MIC ([3]; Table 1B) [µg/mL]	MIC [4] [µg/mL]	MIC [5] [µg/mL]	MIC [6] [µg/mL]	MIC [7] [µg/mL]	MIC [8]	MIC [9] [µg/mL]	MIC [10] [µg/mL]	MIC [11] [µg/mL]	MIC ([12]; Table 1B) [µg/mL]	MIC ([13]; Table 1B) [µg/mL]	MIC ([14]; Table 1B) [µg/mL]	MIC [15] [µg/mL]	MIC [16]	MIC [17]	MIC [18]	MIC [19] [µg/mL]	MIC [20] [µg/mL]	other results
CC[C@H]1OC(=O)C(C)(Cl)C(=O)[C@H](C)[C@@H](O[C@@H]2O[C@H](C)C[C@H](N(C)C)[C@H]2O)[C@](C)(OC)C[C@@H](C)C2=NCCN3C(=O)O[C@@]1(C)[C@H]3[C@H]2C (stereo partly drawn) [Example 2]	25 (≈ 37.2 µM)	25	> 100	50 (≈ 74.4 µM)	25 (≈ 37.2 µM)	25 (≈ 37.2 µM)	> 100	25	12.5 (≈ 18.6 µM)	1.56 (≈ 2.32 µM)	3.1 (≈ 4.61 µM)	3.1 (≈ 4.61 µM)	> 100	6.2 (≈ 9.22 µM)	3.1 (≈ 4.61 µM)	6.2	> 100	0.78	> 100	> 100	MIC ([1]; Table 1C): 25 µg/mL (≈ 37.2 µM); MIC ([2]; Table 1C): 25; MIC ([3]; Table 1C): > 100 µg/mL; MIC ([12]; Table 1C): 4 µg/mL (≈ 5.95 µM); MIC ([13]; Table 1C): 128 µg/mL (≈ 190 µM); MIC ([14]; Table 1C): 16 µg/mL (≈ 23.8 µM); MIC [21]: > 100; MIC [22]: 50; MIC ([23]; Table 1B): 32 µg/mL (≈ 47.6 µM); MIC ([23]; Table 1C): 32 µg/mL (≈ 47.6 µM); MIC ([24]; Table 1B): 4 µg/mL (≈ 5.95 µM); MIC ([24]; Table 1C): 4 µg/mL (≈ 5.95 µM); MIC [25]: 4 µg/mL (≈ 5.95 µM); MIC ([26]; Table 1B): > 128 µg/mL; MIC ([26]; Table 1C): > 128 µg/mL; MIC ([27]; Table 1B): 4 µg/mL (≈ 5.95 µM); MIC ([27]; Table 1C): 4 µg/mL (≈ 5.95 µM)
CC[C@H]1OC(=O)[C@@](C)(F)C(=O)[C@H](C)[C@@H](O[C@@H]2O[C@H](C)C[C@H](N(C)C)[C@H]2O)[C@](C)(OC/C=C/c2cnc3ccc(C=NN=C(C)C)cc3c2)C[C@@H](C)C(=O)[C@H](C)[C@H]2NC(=O)O[C@@]21C [Example 20]	0.1 (≈ 0.115 µM)	0.1	> 100	0.1 (≈ 0.115 µM)	0.2 (≈ 0.231 µM)	0.1 (≈ 0.115 µM)	> 100	0.2	0.1 (≈ 0.115 µM)	0.01 (≈ 0.0115 µM)	0.02 (≈ 0.0231 µM)	0.02 (≈ 0.0231 µM)	1.56 (≈ 1.8 µM)	0.2 (≈ 0.231 µM)	0.02 (≈ 0.0231 µM)	0.1	> 100	0.78	> 100	> 100	MIC [21]: 0.78; MIC [22]: 0.02; MIC ([23]; Table 1B): 4 µg/mL (≈ 4.62 µM); MIC ([24]; Table 1B): 0.125 µg/mL (≈ 0.144 µM); MIC [25]: 0.06 µg/mL (≈ 0.0693 µM); MIC ([26]; Table 1B): 2 µg/mL (≈ 2.31 µM); MIC ([27]; Table 1B): 1 µg/mL (≈ 1.15 µM)
CC[C@H]1OC(=O)C(C)(Br)C(=O)[C@H](C)[C@@H](O[C@@H]2O[C@H](C)C[C@H](N(C)C)[C@H]2O)[C@](C)(OC)C[C@@H](C)C2=NCCN3C(=O)O[C@@]1(C)[C@H]3[C@H]2C (stereo partly drawn) [Example 3]	0.39 (≈ 0.544 µM)	0.39	> 100	0.39 (≈ 0.544 µM)	0.39 (≈ 0.544 µM)	0.39 (≈ 0.544 µM)	> 100	0.39	0.1 (≈ 0.14 µM)	0.2 (≈ 0.279 µM)	0.2 (≈ 0.279 µM)	0.05 (≈ 0.0698 µM)	> 100	0.39 (≈ 0.544 µM)	0.05 (≈ 0.0698 µM)	0.39	> 100	0.39	> 100	> 100	MIC ([1]; Table 1C): 0.78 µg/mL (≈ 1.09 µM); MIC ([2]; Table 1C): 0.78; MIC ([3]; Table 1C): > 100 µg/mL; MIC ([12]; Table 1C): < 0.125 µg/mL; MIC ([13]; Table 1C): 128 µg/mL (≈ 179 µM); MIC [21]: 1.56; MIC [22]: 0.39; MIC ([23]; Table 1B): 8 µg/mL (≈ 11.2 µM); MIC ([23]; Table 1C): 8 µg/mL (≈ 11.2 µM); MIC ([24]; Table 1C): 0.25 µg/mL (≈ 0.349 µM); MIC [25]: 0.125 µg/mL (≈ 0.174 µM); MIC ([26]; Table 1C): > 128 µg/mL; MIC ([27]; Table 1B): 2 µg/mL (≈ 2.79 µM); MIC ([27]; Table 1C): 1 µg/mL (≈ 1.4 µM)
CC[C@H]1OC(=O)[C@@](C)(F)C(=O)[C@H](C)[C@@H](O[C@@H]2O[C@H](C)C[C@H](N(C)C)[C@H]2O)[C@](C)(OC/C=C/c2cnc3ccccc3c2)C[C@@H](C)C(=O)[C@H](C)[C@H]2NC(=O)O[C@@]21C [Example 5]	0.05 (≈ 0.0638 µM)	0.05	> 100	0.05 (≈ 0.0638 µM)	0.05 (≈ 0.0638 µM)	0.05 (≈ 0.0638 µM)	> 100	0.05	0.02 (≈ 0.0255 µM)	0.005 (≈ 0.00638 µM)	0.01 (≈ 0.0128 µM)	0.01 (≈ 0.0128 µM)	0.2 (≈ 0.255 µM)	0.05 (≈ 0.0638 µM)	0.01 (≈ 0.0128 µM)	0.1	25	0.2	25 (≈ 31.9 µM)	12.5 (≈ 15.9 µM)	MIC ([12]; Table 1D): 0.03 µg/mL (≈ 0.0383 µM); MIC ([13]; Table 1D): 0.25 µg/mL (≈ 0.319 µM); MIC ([14]; Table 1D): 0.25 µg/mL (≈ 0.319 µM); MIC [21]: 0.2; MIC [22]: 0.005; MIC ([23]; Table 1B): 1 µg/mL (≈ 1.28 µM); MIC ([23]; Table 1D): 1 µg/mL (≈ 1.28 µM); MIC ([24]; Table 1B): 0.03 µg/mL (≈ 0.0383 µM); MIC ([24]; Table 1D): 0.03 µg/mL (≈ 0.0383 µM); MIC [25]: 0.03 µg/mL (≈ 0.0383 µM); MIC ([26]; Table 1B): 1 µg/mL (≈ 1.28 µM); MIC ([26]; Table 1D): 1 µg/mL (≈ 1.28 µM); MIC ([27]; Table 1B): 0.25 µg/mL (≈ 0.319 µM); MIC ([27]; Table 1D): 0.25 µg/mL (≈ 0.319 µM)
